Test results from article doi:10.1101/2023.06.27.546672v1 (biorxiv, 2023).

Target: T1, apo-sMlaD (Escherichia coli, UniProt P64604)
T1 sequence (P64604 29-183 limits assumed): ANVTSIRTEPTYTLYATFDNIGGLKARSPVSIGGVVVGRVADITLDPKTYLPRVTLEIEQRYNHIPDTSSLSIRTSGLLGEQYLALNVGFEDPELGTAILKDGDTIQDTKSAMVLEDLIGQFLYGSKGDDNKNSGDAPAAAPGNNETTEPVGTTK
Test: isothermal titration calorimetry
Type: binding

SMILES | Kd
C[C@H](CCC(=O)O)[C@H]1CC[C@H]2[C@@H]3[C@H](O)C[C@@H]4C[C@H](O)CC[C@]4(C)[C@H]3CC[C@]12C [CDOC] | 61.6 ± 15.6 µM
C[C@H](CCC(=O)O)[C@H]1CC[C@H]2[C@@H]3CC[C@@H]4C[C@H](O)CC[C@]4(C)[C@H]3C[C@H](O)[C@]12C [DOC] | ~100 µM
